Data from the OPERA property sets (Mansouri et al. 2018).

Settings: not given

| Compound | boiling point [°C] | log10 vapour pressure (mmHg) | melting point [°C] | ready biodegradability | log10 Koc (L/kg) | log10 Henry constant (atm·m³/mol) |
| --- | --- | --- | --- | --- | --- | --- |
| CCCCC(C)C(C)(C)C (stereo unspecified) | 158 | – | – | – | – | – |
| CC(Cl)Br (stereo unspecified) | 83 | 1.93 | – | – | – | – |
| COC(=O)c1ccc(N)cc1 | – | – | 110 | – | – | – |
| CC(=O)CC(=O)Nc1ccc(C)cc1C | – | – | 90 | not readily biodegradable | – | – |
| CCN(CC)C(=O)C(Cl)=C(C)OP(=O)(OC)OC | – | – | – | – | 0.85 | – |
| Fc1ccc(F)c(F)c1F | 94.3 | 1.69 | -42 | – | – | – |
| CC12CCC(C(Br)C1=O)C2(C)C (stereo unspecified) | 274 | – | 76.5 | – | – | – |
| COC(=O)Cn1ccnc1[N+](=O)[O-] | – | – | 96 | – | – | – |
| C=CCCCc1ccccc1 | 201 | – | – | – | – | – |
| O=C(Cc1ccccc1)OCCc1ccccc1 | – | – | 26.5 | – | – | – |
| Cc1cccc(Br)c1 | 184 | 0.185 | -39.8 | – | – | – |
| Nc1cnc2ccccc2c1 | – | -4.54 | 91.5 | – | – | – |
| CC(C)CCO[N+](=O)[O-] | 146 | 0.71 | – | – | – | -2.59 |
| Cc1ccc([N+](=O)[O-])c(F)c1 | – | – | 53.2 | – | – | – |
| CCC(C(N)=O)n1nc2ccccc2n1 (stereo unspecified) | – | – | 128 | – | – | – |
| Oc1ccccc1-c1nc2ccccc2o1 | 338 | – | 124 | – | – | – |
| CCCC(C)(CC)C(C)C (stereo unspecified) | 166 | – | – | – | – | – |
| O=C(O)C(Cc1ccccc1)C(=O)O | – | – | 121 | – | – | – |
| O=C(CCl)c1ccccc1 | 247 | -2.27 | 56.5 | – | – | – |
| FC(F)(F)C1(F)OC1(F)F (stereo unspecified) | -27.4 | – | – | – | – | – |

| Compound | boiling point [°C] | log10 vapour pressure (mmHg) | melting point [°C] | ready biodegradability | log10 Koc (L/kg) | log10 Henry constant (atm·m³/mol) |
| --- | --- | --- | --- | --- | --- | --- |
| Fc1ccc(-c2ccccc2)cc1 | 253 | – | 74.2 | – | – | – |
| S=C(SC(=S)N1CCCCC1)N1CCCCC1 | – | – | 110 | – | – | – |
| CCCC(O)C(C)(C)C (stereo unspecified) | 156 | – | – | – | – | – |
| COC(=O)C1CC1 | 115 | – | – | – | – | – |
| Nc1ccc(C(=O)O)cc1O | – | – | 213 | – | – | – |
| Nc1c([N+](=O)[O-])cc(Cl)cc1[N+](=O)[O-] | – | – | 147 | – | – | – |
| CCCCCCCCC(C)C | 189 | -0.22 | -48.9 | – | – | – |
| O=C(Nc1ccccc1)c1ccccc1 | – | – | 163 | – | – | – |
| C=CCNS(=O)(=O)c1cc(S(N)(=O)=O)c(Cl)cc1/N=C/C=C(/C)O | – | – | 206 | – | – | – |
| CCOC(=O)c1ccccc1C | 227 | – | – | – | – | – |
| CCC=CCC | 66.8 | 2.22 | -114 | – | – | – |
| O=C(O)c1cccc2cccc(Cl)c12 | – | – | 172 | – | – | – |
| CCC(O)CC | 116 | 0.943 | – | – | – | – |
| NCCCNCCCN | – | – | -14 | – | – | – |
| CC(C)Oc1cc(-n2nc(C(C)(C)C)oc2=O)c(Cl)cc1Cl | – | -6.95 | 90 | not readily biodegradable | 3.51 | – |
| CC(C)CC[N+](=O)[O-] | 164 | – | 97 | – | – | – |
| Nc1ccccc1-c1ccccc1 | 299 | – | 51 | not readily biodegradable | – | – |
| O=C(O)c1cccc([N+](=O)[O-])c1C(=O)O | – | – | – | not readily biodegradable | – | – |
| O=C(/C=C/c1ccc([N+](=O)[O-])cc1)c1ccccc1 | – | – | 159 | – | – | – |
| Nc1cc2ccccc2c2ccccc12 | – | – | 138 | – | – | – |

| Compound | boiling point [°C] | log10 vapour pressure (mmHg) | melting point [°C] | ready biodegradability | log10 Koc (L/kg) | log10 Henry constant (atm·m³/mol) |
| --- | --- | --- | --- | --- | --- | --- |
| O=[N+]([O-])c1ccc(Br)cc1 | 256 | – | 127 | – | 2.42 | – |
| CO[C@@H]1[C@H](OC(=O)/C=C/C=C/C=C/C=C/C(=O)O)CC[C@]2(CO2)[C@H]1[C@@]1(C)O[C@@H]1CC=C(C)C | – | – | 194 | – | – | – |
| CN(CCCN)CCCN | 232 | – | – | – | – | – |
| Cc1cc(-c2ccc(N=C=O)c(C)c2)ccc1N=C=O | – | – | 71 | – | – | – |
| O=C(Nc1ccc(Cl)cc1C(O)c1ccccc1)c1ccncc1 (stereo unspecified) | – | – | 211 | – | – | – |
| O=C1CCc2cc(OCCCCc3nnnn3C3CCCCC3)ccc2N1 | – | – | 160 | – | – | – |
| CC=C(Cl)Cl | 76.5 | 1.96 | – | – | – | – |
| Cc1ccc(Cl)c([N+](=O)[O-])c1 | 261 | – | 7 | – | – | – |
| C=C(Cl)C(=O)O | – | – | 66 | – | – | – |
| CCCCCC1=CCCC1 | 179 | – | -83 | – | – | – |
| CC(=O)Nc1ccc(/N=N/c2cc(C)ccc2O)cc1 | – | -10.3 | 195 | – | – | – |
| O=C(c1ccc(Cl)cc1)c1ccccc1Cl | – | – | 67 | – | – | – |
| O=C(O)C=Cc1ccccc1 | – | – | – | readily biodegradable | – | – |
| O=NN(c1ccccc1)c1ccccc1 | – | – | 66.5 | readily biodegradable | 3.08 | – |
| CCCCCC(C)C(C)C (stereo unspecified) | 164 | – | – | – | – | – |
| COP(=O)(O)OC | 174 | – | – | – | – | – |
| CC(C)[C@@H](C)/C=C/[C@@H](C)[C@H]1CC[C@H]2/C(=C/C=C3\C[C@@H](O)CC[C@@H]3C)CCC[C@]12C | – | – | 126 | – | – | – |
| Clc1ccccc1-c1cccc(Cl)c1Cl | – | – | – | – | – | -3.7 |
| Clc1ccc(Br)c(Cl)c1 | 235 | – | 26 | – | – | – |

Same assay, conditions: fish

| Compound | log10 BCF | log10 biotransformation half-life (days) |
| --- | --- | --- |
| Nc1ccc([N+](=O)[O-])cc1 | 0.6 | -0.51 |
| COP(=S)(OC)Oc1cc(Cl)c(I)cc1Cl | 3.62 | 0.86 |
| c1ccc(Nc2cccc3ccccc23)cc1 | 3.23 | – |
| Clc1ccc(Cl)c(-c2c(Cl)cc(Cl)c(Cl)c2Cl)c1 | – | 2.23 |
| Clc1ccc(-c2cccc(Cl)c2Cl)c(Cl)c1 | – | 2.62 |
| COc1cccc([N+](=O)[O-])c1 | 0.78 | -1.04 |
| CCCCCCCCC(C)C | – | 0.1 |
| CC(C)Oc1cc(-n2nc(C(C)(C)C)oc2=O)c(Cl)cc1Cl | 3.08 | 0.77 |
| Nc1ccccc1-c1ccccc1 | 1.41 | -1.06 |
| O=C(O)c1cccc([N+](=O)[O-])c1C(=O)O | 0.72 | -1.57 |
| O=NN(c1ccccc1)c1ccccc1 | 1.33 | -0.91 |
